Assay results from PubChem BioAssay AID1919014 (Molecular Pharmacology Branch, DTP, NCI, 2023).
Where “and” joins values, the source holds several entries; their conditions need not be identical. Equal values may be shown once.

System: NCI-H1341 complex spheroids, percent test/control
Test: Anticancer human tumor NCI-H1341 cell line growth inhibition [AhR];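 further: spheroids exposed to agents for seven days before readout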
Conditions: for viability, T/C: stronger effect = lower value; for IC50: curve of compound
From the text: Multicellular complex tumor spheroid response to aryl hydrocarbon receptor antagonists in combination with a variety of drugs and investigational agents in selected tumor cell lines
The current study was undertaken to assess response to aryl hydrocarbon receptor antagonists in combination with standard-of-care drugs and investigational agents in solid tumor complex spheroid models. Complex spheroids include a stromal component modeled by human endothelial cells (HUVEC) and fibroblasts modeled by human mesenchymal stem cells (MSCs). The concentration ranges selected for each drug and investigational agent were based upon clinically achievable concentrations if the clinical Cmax of the agent was known.
Compounds. The drugs and investigational agents: BAY 2416964 (NSC825713), GNF351 (NSC835774), CH-223191 (NSC835775), CPI-455 (NSC825282), aza-TdCyd (NSC777586), decitabine (NSC127716), belinostat (NSC758774), entinostat (NSC756642), pevonedistat (NSC761192), tazemetostat (NSC777109), talazoparib (NSC765396), olaparib (NSC753686), selinexor (NSC780203), nedisertib (M3814, NSC802822), bortezomib (NSC756655), venetoclax (NSC766270), doxorubicin (NSC123127), elimusertib (BAY189344, NSC800525), ceralasertib (AZD6738, NSC777638), TAK-243 (NSC785004), alisertib (NSC759677), etoposide (NSC141540), topotecan (NSC609699), eribulin (NSC707389), gemcitabine (NSC613327), carboplatin (NSC241240), cisplatin (NSC119875), and SN-38 (NSC673596) were obtained from the National Cancer Institute (NCI) Developmental Therapeutics Program Chemical Repository (32). The FDA-approved anticancer drug set is available from the Developmental Therapeutics Program at https://dtp.cancer.gov/organization/dscb/obtaining/available plates.htm. […] The stock solutions were prepared in dimethyl sulfoxide (DMSO, Sigma-Aldrich, St. Louis, MO, cat. D2650), except for the platinum compounds which were prepared in saline (Quality Biological, Gaithersburg, MD, cat. 114-055-101), at 800-fold the tested concentration and stored at -70 degrees C prior to their use. All drugs and investigational agents were tested over a range starting from a high concentration at or near the clinical Cmax and decreasing in half-log increments. If the clinical Cmax for an agent had not been determined, the highest concentration tested was 10 microM (Table 1).
Cell Culture. All cells were maintained in an incubator at 37 degrees C and 5% CO2 with 95% humidity. The PDC lines were cultured according to standard operating procedures established by the NCI PDMR (https://pdmr.cancer.gov). Briefly, all PDCs were thawed and cultured in Matrigel-coated flasks prepared with a working solution of 1X Ham's F-12 nutrient mix, without supplementation (Invitrogen, Waltham, MA, cat. 11765054), 100 U/mL penicillin-streptomycin (Invitrogen, cat. 15140122), and 2.5% Matrigel (Corning Inc., Corning, NY, cat. 354248) for the first three passages. All PDCs were cultured in complete DMEM/F-12 media containing advanced DMEM/F-12 (Invitrogen, cat. 12634028), 4.9% defined fetal bovine serum, heat inactivated (HyClone Laboratories Inc., Logan, UT, cat. SH30070.03HI), 389 ng/mL hydrocortisone (Sigma-Aldrich, cat. H4001), 9.7 ng/mL human EGF recombinant protein (Invitrogen, cat. PHG0313), 23.4 microg/mL adenine (Sigma-Aldrich, cat. A2786), 97.3 U/mL penicillin-streptomycin (Invitrogen, cat. 15140122), 1.9 mM L-glutamine (Invitrogen, cat. 25030081), and 9.7 microM Y-27632 dihydrochloride (Tocris Bioscience, Bristol, United Kingdom, cat. 1254). The PDCs were cultured in complete DMEM/F12 media without 10 microM Y-27632 dihydrochloride for at least two passages prior to the screen. The established cell lines NCI-H1341 and […] were cultured in DMEM/F-12, HEPES (Invitrogen, cat. 11330032), 5% defined fetal bovine serum (HyClone Laboratories Inc., cat. SH30070.03), ITS premix universal culture supplement [insulin (5 microg/mL), transferrin (5 microg/mL), and selenious acid (5 ng/mL)] […]

IC50	Compound	viability, T/C (compound 0.0316 µM)	viability, T/C (compound 0.1 µM)	viability, T/C (compound 0.316 µM)	viability, T/C (compound 1 µM)	viability, T/C (compound 3.16 µM)	viability, T/C (compound 10 µM)	other results
1650 nM and 1260 nM and 1880 nM	COc1ccc([C@@H](O)c2cc(-c3ncnc4cc(N5CCOCC5)ccc34)c(F)cc2Cl)nn1	97.1% and 88.2% and 96%	96.2% and 93.7% and 96.8%	91.2% and 79.9% and 87.8%	63.1% and 57% and 71.2%	31.1% and 22.9% and 32.9%	4.6% and 6.65% and 8.33%	
< 31.6 nM and 186 nM and 114 nM	COc1cccc2c1C(=O)c1c(O)c3c(c(O)c1C2=O)CC(O)(C(=O)CO)CC3OC1CC(N)C(O)C(C)O1 (stereo not drawn)	49.4% and 58.5% and 51.1%	48.7% and 55.5% and 55.7%	35.4% and 44.5% and 30.1%	13.8% and 18.2% and 6.98%	0.92% and 1.68% and 0.74%	4.71% and 5.46% and 2.82%	
> 100 nM	Cn1ncnc1C1c2n[nH]c(=O)c3cc(F)cc(c23)NC1c1ccc(F)cc1 (stereo not drawn)	85.5% and 74% and 100%	89.4% and 76.9% and 71.7%					viability, T/C (compound 0.000316 µM): 125% and 98% and 95.9%; viability, T/C (compound 0.001 µM): 88.8% and 101% and 99%; viability, T/C (compound 0.00316 µM): 97.2% and 99.4% and 99.8%; viability, T/C (compound 0.01 µM): 96.9% and 109% and 95.9%
39.2 nM and < 31.6 nM	NS(=O)(=O)OCC1CC(n2ccc3c(NC4CCc5ccccc54)ncnc32)CC1O (stereo not drawn)	52.1% and 44.4% and 32.1%	41.7% and 37.3% and 22.6%	27.1% and 18% and 11.2%	12.3% and 12.1% and 6.23%	11.9% and 7.68% and 3.37%	11.4% and 4.21% and 2.28%	
457 nM and 718 nM and 183 nM	Nc1ccccc1NC(=O)c1ccc(CNC(=O)OCc2cccnc2)cc1	86.1% and 87.6% and 78.7%	92.3% and 84.5% and 75%	59.9% and 74.8% and 27.3%	24.3% and 40.5% and 16.6%	5.76% and 6.13% and 5.26%	0.69% and 0.9% and 0.3%	
425 nM and 423 nM and 295 nM	O=C(C=Cc1cccc(S(=O)(=O)Nc2ccccc2)c1)NO	91.7% and 96.1% and 95.8%	87.7% and 85.4% and 80.2%	61.3% and 59% and 42.5%	17% and 24% and 28%	7.15% and 7.86% and 8.15%	1.07% and 0.78% and 0.36%	
> 10000 nM	O=C(c1cc(Cc2n[nH]c(=O)c3ccccc23)ccc1F)N1CCN(C(=O)C2CC2)CC1	97.7% and 93.7% and 111%	100% and 83.7% and 108%	105% and 87.7% and 90.6%	95.6% and 88% and 110%	102% and 86.6% and 83.1%	76.6% and 70.3% and 83.6%	

The remaining lines, values behind:

Compound	IC50	viability, T/C (compound 0.0316 µM)	viability, T/C (compound 0.1 µM)	viability, T/C (compound 0.316 µM)	viability, T/C (compound 1 µM)	viability, T/C (compound 3.16 µM)	viability, T/C (compound 10 µM)	other results
Cc1ccccc1N=Nc1ccc(NC(=O)c2ccnn2C)c(C)c1							56.2% [middle of 20 runs]	
Nc1ccn(C2OC(CO)C(O)C2(F)F)c(=O)n1 (stereo not drawn)	< 31.6 nM	27.5% and 32.2% and 32.9%	26.6% and 28.1% and 35.2%	24.2% and 25.8% and 36.1%	24.8% and 27.9% and 31.6%	23.1% and 24.4% and 33.5%	21.6% and 21.2% and 32.3%	
Nc1ncn(C2CC(O)C(CO)O2)c(=O)n1 (stereo not drawn)	231 nM and 466 nM and 261 nM	102% and 89.2% and 69.8%	64.2% and 72.3% and 74.5%	50.6% and 52.8% and 43.7%	37% and 45.7% and 25.6%			viability, T/C (compound 0.00316 µM): 107% and 86.3% and 88.1%; viability, T/C (compound 0.01 µM): 95.4% and 112% and 100%
Nc1ncn(C2CC(O)C(CO)S2)c(=O)n1 (stereo not drawn)	> 300 nM and 294 nM							viability, T/C (compound 0.000949 µM): 109% and 96.2% and 95%; viability, T/C (compound 0.003 µM): 90.5% and 73.4% and 100%; viability, T/C (compound 0.00949 µM): 115% and 102% and 104%; viability, T/C (compound 0.03 µM): 105% and 80.6% and 104%; viability, T/C (compound 0.0949 µM): 89.2% and 68.3% and 79%; viability, T/C (compound 0.3 µM): 68.2% and 49.5% and 62%
O=C(C=Cn1cnc(-c2cc(C(F)(F)F)cc(C(F)(F)F)c2)n1)NNc1cnccn1	122 nM and 51.9 nM and 59 nM							viability, T/C (compound 0.00949 µM): 92.3% and 73.3% and 75.8%; viability, T/C (compound 0.03 µM): 77.8% and 68.4% and 79.9%; viability, T/C (compound 0.0949 µM): 61.5% and 30% and 30.5%; viability, T/C (compound 0.3 µM): 12.5% and 17.1% and 6.76%; viability, T/C (compound 0.949 µM): 8.28% and 8.73% and 4.72%; viability, T/C (compound 3 µM): 6.13% and 7.12% and 2.87%
